Measurements as given in patent US20070021303A1, “Safening method” (priority 2004, published 2007).

Legend:
onion [1] = assay: Mefenpyr safening oxyfluorfen damage in onion (seed treatment); type: in vivo, Allium cepa; settings: variety Diamante, oxyfluorfen (Goal) 7.5 g a.i./ha 9 days after seeding
Method: (§1) Onion (Allium cepa var. Brioso) seeds were encrusted in a commercial seed coating machine. Approximately 1 ml of binder was added. Subsequently, a small amount of encrustment powder (X % Naphthalic Anhydride+[100−X]% inert filler material) was added. Binder was added again and this procedure was repeated until all encrustment powder was stuck to the seeds. Seeds were dried subsequently.
(§2) The differently-treated seeds were sown in trays. After 9 days, the seedlings were sprayed with 1.0 g/l ioxynil using an atomizer. A dosage of 3 ml per tray was applied, equalizing 300 g.a.i./hectare. At 3 days after spraying the number of collapsed seedlings was counted.
Onion (Allium cepa var. Diamante) were treated with safener, sown, treated with a herbicide and evaluated as described in Example 5 with the difference that the herbicide is oxyfluorfen and the safener is mefenpyr-diethyl.

leek [2] = assay: Oxabetrinil safening ioxynil damage in leek (seed treatment); type: in vivo, allium porrum
leek [3] = assay: Post-emergence application of herbicide and safener by the tank mix method, leek; type: in vivo
Excerpt: (§3) Seeds of leek plants were sown in sandy loam soil in round plastic pots of a diameter of 7 cm and covered with a layer of sandy loam of a thickness of about 0.2 cm. The pots were placed in a greenhouse under favorable growth conditions for until the plants had reached the 2-leaves growth stage. Then, a herbicide or—in a parallel experiment—a tank-mix of the herbicide and a safener (using same basic formulation in each case) was applied to the green parts of the plants and the uncovered part of the soil surface with a spray bar using a water application rate of 300 liters per hectare.
(§4) The pots were placed in a greenhouse under favorable growth conditions. Visual scoring of the herbicidal action was carried out 21 or 40 days after treatment with the herbicide or the tank-mix, respectively. Evaluation was carried out on a percentage basis by comparison with untreated control plants (0%=no noticeable effect compared with the untreated plant, 100%=treated plant dies).

onion [4] = assay: Post-emergence application of herbicide and safener by the tank mix method, onion; type: in vivo
Excerpt: as §3, with “onion” for “leek”
as §4

leek [5] = assay: Fluxofenim safening ioxynil damage in leek (seed treatment); type: in vivo, allium porrum
onion [6] = assay: Seed treatment of onion with safener (encrustment with rotostat), early post-emergence application of ioxynil; type: in vivo, Allium cepa; settings: var. Brioso
Method: as §1, §2

leek [7] = assay: Seed treatment of leek with safener (encrustment method), early post-emergence application of ioxynil; type: in vivo, allium porrum
Method: Leek (allium porrum var. Parton) seeds were put in an erlenmeyer flask with a spinning stirring magnet. A droplet of binder (glue) was added and distributed evenly amongst the seeds. Subsequently, a small amount of encrustment powder (X % mefenpyr-diethyl+[100−X]% inert filler material) was added and mixed through the seeds using the stirring magnet. A droplet of binder was added again and this procedure was repeated until all encrustment powder was stuck to the seeds. Seeds were dried subsequently.
The differently-treated seeds were sown in trays. After 9 days, the seedlings were sprayed with 4.0 g/l ioxynil using an atomizer. A dosage of 3 ml per tray was applied, equalizing 1200 g.a.i./hectare. At 6 days after spraying the number of collapsed seedlings was counted.

leek [8] = assay: Seed treatment of leek with safener (seed coating with rotostat system), field, early post-emergence application of ioxynil; type: in vivo, allium porrum
Method: (§5) Leek (allium porrum var. Shelton) seeds were coated in a commercial seed coating machine. Gradually, binder solution with X g of mefenpyr-diethyl was added. Seeds were dried subsequently.
The differently-treated seeds were sown in the field using commercial sowing equipment. After 25 days, the seedlings were sprayed with a standard formulation of ioxynil (®Totril) at an application rate of 112 g a.i./ha ioxynil. At 15 days after spraying the number of collapsed seedlings was counted.

leek [9] = assay: Mefenpyr safening Prometryn damage in leek (seed treatment); type: in vivo, allium porrum; settings: prometryn (Gesagard) 750 g a.i./ha 10 days after seeding
Method: as §5
The differently-treated seeds were sown in the field using commercial sowing equipment. […]
Leek seeds (allium porrum, var. Shelton or Parton) were treated with safener, sown, treated with a herbicide and evaluated as described in Example 6 with the difference that the herbicide is prometryn.

onion [10] = assay: Benoxacor safening bromoxynil damage in onion (seed treatment); type: in vivo, Allium cepa; settings: variety Diamante; safener 0 g a.i./kg seed; bromoxynil-octanoate (Buctril) 25 g a.i./ha 10 days after seeding
Method: as §1
The differently-treated seeds were sown in trays. After 9 days, the seedlings were sprayed with 1.0 g/l ioxynil using an atomizer. A dosage of 3 ml per tray was applied, equalizing 300 g.a.i./hectare. […]
Onion (Allium cepa var. Diamante) were treated with safener, sown, treated with a herbicide and evaluated as described in Example 5 with the difference that the herbicide is bromoxynil-octanoate and the safener is benoxacor.

CCOc1cc(Oc2ccc(C(F)(F)F)cc2Cl)ccc1[N+](=O)[O-] [H6, oxyfluorfen]
Damage to seedling (% collapsed) at 5 DAT (onion [1]; safener 0 g a.i./kg seed): 83%

N#C/C(=N\OCC1OCCO1)c1ccccc1 [oxabetrinil, (Z)-1,3-dioxolan-2-ylmethoxyimino(phenyl)-acetonitrile]
Damage to seedling (% collapsed) at 7 DAT (leek [2]; variety Shelton, safener oxabetrinil 1 g a.i./kg seed, ioxynil (Totril) 112 g a.i./ha 10 days after seeding): 25% | Damage to seedling (% collapsed) at 7 DAT (leek [2]; variety Shelton, safener oxabetrinil 2 g a.i./kg seed, ioxynil (Totril) 112 g a.i./ha 10 days after seeding): 27% | Damage to seedling (% collapsed) at 7 DAT (leek [2]; variety Shelton, safener oxabetrinil 4 g a.i./kg seed, ioxynil (Totril) 112 g a.i./ha 10 days after seeding): 13%

COc1cc(OC)nc(NC(=O)NS(=O)(=O)c2cc(NC=O)ccc2C(=O)N(C)C)n1 [H4, N,N-dimethyl-2-[3-(4,6-dimethoxypyrimidin-2-yl)ureidosulfonyl]-4-formylaminobenzamide]
Damage to leek (in %) variety Harston (leek [3]; in vivo): 50% | Damage to leek (in %) variety Kenton (leek [3]; in vivo): 50% | Damage to onion (in %) variety Blanco Duro (onion [4]; in vivo): 10% | Damage to onion (in %) variety Brioso (onion [4]; in vivo): 30%

FC(F)(F)C(=NOCC1OCCO1)c1ccc(Cl)cc1 [fluxofenim, 1-(4-chlorophenyl)-2,2,2-trifluoro-1-ethanone O-(1,3-dioxolan-2-ylmethyl)oxime]
Damage to seedling (% collapsed) at 5 DAT (leek [5]; variety Shelton, safener fluxofenim 1 g a.i./kg seed, ioxynil (Totril) 112 g a.i./ha 10 days after seeding): 10% | Damage to seedling (% collapsed) at 5 DAT (leek [5]; variety Shelton, safener fluxofenim 2 g a.i./kg seed, ioxynil (Totril) 112 g a.i./ha 10 days after seeding): 6%

CON(C)C(=O)Nc1ccc(Cl)c(Cl)c1 [H2, linuron]
Damage to leek (in %) variety Harston (leek [3]; variety Harston, 250 g a.i./ha, scoring 40 DAT): 20% | Damage to leek (in %) variety Kenton (leek [3]; variety Kenton, 250 g a.i./ha, scoring 40 DAT): 20% | Damage to onion (in %) variety Blanco Duro (onion [4]; variety Blanco Duro, 250 g a.i./ha, scoring 40 DAT): 100% | Damage to onion (in %) variety Brioso (onion [4]; variety Brioso, 250 g a.i./ha, scoring 40 DAT): 30%

O=C1OC(=O)c2cccc3cccc1c23 [naphthalic anhydride, 1,8-naphthalenedicarboxylic anhydride]
damage (collapsed seedlings) versus control-treated seedlings (onion [6]; naphthalic anhydride seed treatment, then ioxynil 300 g a.i./ha, after 3 days): significantly less damage

N#Cc1cc(I)c(O)c(I)c1 [H1, 4-hydroxy-3,5-di-iodobenzonitrile]
Damage to leek (in %) variety Harston (leek [3]; in vivo): 40% | Damage to leek (in %) variety Kenton (leek [3]; in vivo): 55% | Damage to seedling (% collapsed) at 7 DAT (leek [2]; in vivo): 45% | Damage to leek (in %) 6 DAT (leek [7]; in vivo): 52% | Damage to seedling (% collapsed) at 5 DAT (leek [5]; in vivo): 16% | Damage to leek (in %) 15 DAT (leek [8]; in vivo): 6% | Damage to onion (in %) variety Blanco Duro (onion [4]; in vivo): 55% | Damage to onion (in %) variety Brioso (onion [4]; in vivo): 45% | Damage to onion (in %) 3 DAT (onion [6]; no safener, ioxynil 300 g a.i./ha sprayed 9 days after seeding, collapsed seedlings 3 DAT): 57%

CCOC(=O)C1=NN(c2ccc(Cl)cc2Cl)C(C)(C(=O)OCC)C1 (centres unmarked) [mefenpyr-diethyl, ethyl 1-(2,4-dichlorophenyl)-5-(ethoxycarbonyl)-5-methyl-2-pyrazoline-3-carboxylate]
Damage to seedling (% collapsed) at 6 DAT (leek [9]; variety Parton, safener mefenpyr-diethyl 1 g a.i./kg seed): 3% | Damage to seedling (% collapsed) at 6 DAT (leek [9]; variety Parton, safener mefenpyr-diethyl 2 g a.i./kg seed): 1% | Damage to seedling (% collapsed) at 6 DAT (leek [9]; variety Shelton, safener mefenpyr-diethyl 1 g a.i./kg seed): 2% | Damage to seedling (% collapsed) at 6 DAT (leek [9]; variety Shelton, safener mefenpyr-diethyl 2 g a.i./kg seed): 1% | damage (collapsed seedlings) versus control-treated seedlings (leek [7]; var. Parton, mefenpyr seed treatment, then ioxynil 1200 g a.i./ha, 6 days after application): significantly less damage | Damage to leek (in %) 15 DAT (leek [8]; var. Shelton, field, ST3 = seed treatment 2.0 g a.i./kg mefenpyr-diethyl, ioxynil 112 g a.i./ha 25 days after seeding, 15 DAT): significantly reduced the amount of damage | Damage to seedling (% collapsed) at 5 DAT (onion [1]; safener mefenpyr-diethyl 2 g a.i./kg seed): 64% | Damage to seedling (% collapsed) at 5 DAT (onion [1]; safener mefenpyr-diethyl 4 g a.i./kg seed): 49% | Damage to seedling (% collapsed) at 5 DAT (onion [1]; safener mefenpyr-diethyl 8 g a.i./kg seed): 39%

COC(=O)c1ccc(CNS(C)(=O)=O)cc1S(=O)(=O)NC(=O)Nc1nc(OC)cc(OC)n1 [H3, methyl 2-[3-(4,6-dimethoxypyrimidin-2-yl)ureidosulfonyl]-4-methanesulfonylaminomethylbenzoate]
Damage to leek (in %) variety Harston (leek [3]; variety Harston, 50 g a.i./ha, scoring 40 DAT): 50% | Damage to leek (in %) variety Kenton (leek [3]; variety Kenton, 50 g a.i./ha, scoring 40 DAT): 45% | Damage to onion (in %) variety Blanco Duro (onion [4]; in vivo): 70% | Damage to onion (in %) variety Brioso (onion [4]; in vivo): 50%

CCCCCCCC(=O)Oc1c(Br)cc(C#N)cc1Br [H7, bromoxynil-octanoate]
Damage to seedling (% collapsed) at 5 DAT (onion [10]): 19%
